Experimental data published in ChEMBL document CHEMBL1201862, “PubChem BioAssay data set” (2004).
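96-well plates; 48 h exposure; 5 concentrations. Endpoints by linear interpolation between flanking doses. Not reached: highest tested concentration assigned. GI50 marks 50% less growth.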 Active and inactive are the calls of the source. Cut-off read from the data, not from the text of the source: active = GI50 up to about 1.1 µM and inactive = higher.

Assays:
Test in all cases: inhibition of tumour cell growth, NCI panel, 48 h
ACHN = test system: ACHN
DU-145 = test system: DU-145
OVCAR-4 = test system: OVCAR-4
OVCAR-5 = test system: OVCAR-5
CCRF-CEM = test system: CCRF-CEM
OVCAR-3 = test system: OVCAR-3
SK-MEL-28 = test system: SK-MEL-28
RPMI-8226 = test system: RPMI-8226
MDA-N = test system: MDA-N
KM12 = test system: KM12
T47D = test system: T47D
786-0 = test system: 786-0
SF-539 = test system: SF-539
SW-620 = test system: SW-620
UACC-257 = test system: UACC-257
U-251 = test system: U-251
MDA-MB-435 = test system: MDA-MB-435
SNB-19 = test system: SNB-19
A498 = test system: A498
BT-549 = test system: BT-549

Measured: GI50

N#C[C@H]1Nc2ccccc2[C@@H](O)C1O (stereo partly drawn)
inactive: ACHN > 100 µM | DU-145 > 100 µM | OVCAR-4 > 100 µM | OVCAR-5 > 100 µM | CCRF-CEM > 100 µM | OVCAR-3 > 100 µM | SK-MEL-28 > 100 µM | RPMI-8226 > 100 µM | MDA-N > 100 µM | KM12 > 100 µM | T47D > 100 µM | 786-0 > 100 µM | SF-539 > 100 µM | SW-620 > 100 µM | UACC-257 > 100 µM | U-251 > 100 µM | MDA-MB-435 > 100 µM

Cc1ccc(C)n1-c1ccccc1C1C=Cn2c3c1c(=O)c(OC(C)C)c(OC(C)C)c-3n[nH]c2=O (stereo not drawn)
inactive: ACHN 45.8 µM | SNB-19 76.2 µM | DU-145 99.3 µM | OVCAR-4 38.9 µM | A498 > 100 µM | OVCAR-5 > 100 µM | CCRF-CEM 13.3 µM | OVCAR-3 35.5 µM | SK-MEL-28 17.5 µM | RPMI-8226 8.3 µM | MDA-N 37.6 µM | KM12 19.9 µM | 786-0 20.9 µM | SF-539 58.3 µM | SW-620 18.3 µM | BT-549 32.7 µM | UACC-257 32.6 µM | U-251 32.7 µM | MDA-MB-435 21.8 µM

CCOC(=O)c1[nH]c2ccccc2c1C(=O)C[C@H](NC(=O)C(F)(F)F)C(=O)OC
inactive: ACHN > 100 µM | SNB-19 > 100 µM | DU-145 > 100 µM | OVCAR-4 > 100 µM | A498 > 100 µM | OVCAR-5 > 100 µM | CCRF-CEM > 100 µM | OVCAR-3 > 100 µM | SK-MEL-28 > 100 µM | RPMI-8226 > 100 µM | MDA-N > 100 µM | KM12 > 100 µM | 786-0 > 100 µM | SF-539 > 100 µM | SW-620 > 100 µM | BT-549 > 100 µM | UACC-257 > 100 µM | U-251 > 100 µM | MDA-MB-435 > 100 µM

C/C(=C\Cc1ccc(F)cc1)CCCCCC/C(C)=C/Cc1ccc(F)cc1
inactive: ACHN 12.2 µM | SNB-19 32.9 µM | DU-145 14.2 µM | OVCAR-4 16.3 µM | OVCAR-5 16.2 µM | CCRF-CEM 8.28 µM | OVCAR-3 22.9 µM | MDA-N 18.5 µM | KM12 2.25 µM | 786-0 7.13 µM | SF-539 16.7 µM | SW-620 17.9 µM | BT-549 28.6 µM | UACC-257 18.1 µM | U-251 18.1 µM | MDA-MB-435 16.5 µM

O=C1/C(=C/c2ccc(Cl)c(Cl)c2)CNC/C1=C\c1ccc(Cl)c(Cl)c1
inactive: ACHN 18.1 µM | SNB-19 1.46 µM | DU-145 49 µM | OVCAR-4 2.52 µM | A498 18.3 µM | OVCAR-5 18.3 µM | CCRF-CEM 2.29 µM | OVCAR-3 3.89 µM | SK-MEL-28 26.3 µM | RPMI-8226 3.75 µM | MDA-N 20.4 µM | KM12 6.76 µM | 786-0 2.39 µM | SF-539 7.87 µM | SW-620 1.38 µM | BT-549 27.9 µM | UACC-257 41.2 µM | U-251 5.11 µM | MDA-MB-435 20.9 µM

O=c1c2ccccc2nc(Cc2nc(-c3ccc(Cl)cc3)cs2)n1-c1ccc(Cl)cc1
inactive: ACHN 37 µM | SNB-19 > 100 µM | DU-145 55.8 µM | OVCAR-4 76.2 µM | A498 68.1 µM | OVCAR-5 27.1 µM | CCRF-CEM 17.6 µM | OVCAR-3 94.2 µM | SK-MEL-28 23.8 µM | RPMI-8226 23.8 µM | MDA-N 41.4 µM | KM12 41.8 µM | 786-0 81.3 µM | SW-620 91.8 µM | BT-549 82.2 µM | UACC-257 67.6 µM | U-251 54.5 µM | MDA-MB-435 46.3 µM

O=C(c1cccc2ccccc12)C1S(=O)(=O)OCCOS1(=O)=O
inactive: ACHN > 100 µM | SNB-19 > 100 µM | DU-145 > 100 µM | OVCAR-4 > 100 µM | OVCAR-5 > 100 µM | CCRF-CEM > 100 µM | OVCAR-3 > 100 µM | SK-MEL-28 > 100 µM | RPMI-8226 > 100 µM | MDA-N > 100 µM | KM12 > 100 µM | 786-0 > 100 µM | BT-549 > 100 µM | U-251 > 100 µM | MDA-MB-435 > 10 µM

N#CC1C(=O)NC2=C(CCOc3c2ccc2ccccc32)C1c1ccc(F)cc1 (stereo not drawn)
inactive: ACHN 13.3 µM | SNB-19 20 µM | DU-145 29.1 µM | OVCAR-4 31.8 µM | A498 19.7 µM | OVCAR-5 23.5 µM | CCRF-CEM 28.4 µM | OVCAR-3 21.1 µM | KM12 67.5 µM | T47D 27.4 µM | 786-0 17.7 µM | SF-539 44.8 µM | SW-620 31 µM | BT-549 60 µM | UACC-257 > 100 µM | U-251 12.3 µM | MDA-MB-435 40.9 µM

CC1(C)OC[C@@H]([C@H](O)C2C=CC(=O)S2)O1 (stereo partly drawn)
inactive: ACHN 19.2 µM | SNB-19 43.6 µM | DU-145 21.2 µM | OVCAR-4 42.1 µM | A498 21.4 µM | OVCAR-5 63.7 µM | CCRF-CEM 24.1 µM | OVCAR-3 50.5 µM | RPMI-8226 18.4 µM | MDA-N 22.1 µM | KM12 14.6 µM | 786-0 22.9 µM | SF-539 27.4 µM | SW-620 32 µM | BT-549 17.9 µM | UACC-257 26.8 µM | U-251 27.7 µM | MDA-MB-435 37.8 µM

Cc1c(NC(=S)N/N=C\C(=N/NC(=S)Nc2c(C)n(C)n(-c3ccccc3)c2=O)c2ccccc2)c(=O)n(-c2ccccc2)n1C
inactive: ACHN > 100 µM | SNB-19 > 100 µM | DU-145 > 100 µM | OVCAR-4 > 100 µM | A498 > 100 µM | OVCAR-5 > 100 µM | OVCAR-3 > 100 µM | KM12 > 100 µM | T47D > 100 µM | 786-0 > 100 µM | SF-539 > 100 µM | SW-620 > 100 µM | BT-549 > 100 µM | UACC-257 > 100 µM | U-251 > 100 µM | MDA-MB-435 > 100 µM

COC(=O)C(=CNC(N)=O)C(=O)OC
inactive: ACHN > 100 µM | SNB-19 > 100 µM | DU-145 > 100 µM | OVCAR-5 > 100 µM | CCRF-CEM > 100 µM | OVCAR-3 > 100 µM | SK-MEL-28 > 100 µM | RPMI-8226 > 100 µM | MDA-N > 100 µM | KM12 > 100 µM | T47D > 100 µM | 786-0 > 100 µM | SF-539 > 100 µM | SW-620 > 100 µM | UACC-257 > 100 µM | MDA-MB-435 > 100 µM

CC1(C)CC(=O)C(=CN2C(=O)CNC2=S)C(=O)C1
inactive: ACHN > 100 µM | SNB-19 > 100 µM | DU-145 > 100 µM | OVCAR-4 > 100 µM | OVCAR-5 > 100 µM | CCRF-CEM > 100 µM | OVCAR-3 > 100 µM | MDA-N > 100 µM | KM12 > 100 µM | 786-0 > 100 µM | SF-539 > 100 µM | SW-620 > 100 µM | BT-549 > 100 µM | UACC-257 > 100 µM | U-251 > 100 µM | MDA-MB-435 > 100 µM

O=c1s[s+]([O-])c2ccccc12 (stereo not drawn)
inactive: ACHN > 100 µM | SNB-19 > 100 µM | DU-145 > 100 µM | OVCAR-4 > 100 µM | A498 > 100 µM | OVCAR-5 > 100 µM | CCRF-CEM 61.4 µM | OVCAR-3 > 100 µM | SK-MEL-28 > 100 µM | RPMI-8226 62.1 µM | MDA-N > 100 µM | KM12 > 100 µM | 786-0 > 100 µM | SF-539 > 100 µM | SW-620 > 100 µM | BT-549 > 100 µM | UACC-257 > 100 µM | U-251 > 100 µM | MDA-MB-435 > 100 µM

CC1(C)C(=O)C=CC2(C)C1CC(O)C1(C)C2CCC2(C)C(c3ccoc3)OC(=O)C3OC321 (stereo not drawn)
inactive: ACHN 14.1 µM | SNB-19 18.9 µM | DU-145 16.4 µM | OVCAR-4 15 µM | A498 15.3 µM | OVCAR-5 32.3 µM | CCRF-CEM 23.1 µM | OVCAR-3 13.9 µM | SK-MEL-28 24.8 µM | RPMI-8226 18.5 µM | MDA-N 18.1 µM | KM12 14.9 µM | 786-0 12.2 µM | SF-539 > 10 µM | SW-620 19.8 µM | BT-549 18.7 µM | UACC-257 > 10 µM | U-251 17.4 µM | MDA-MB-435 23.7 µM

CN(C)CCCOC(=O)C(c1ccccc1)C1(O)CCSCC1 (stereo not drawn)
inactive: ACHN > 100 µM | SNB-19 26.8 µM | DU-145 > 100 µM | OVCAR-4 > 100 µM | A498 > 100 µM | OVCAR-5 > 100 µM | CCRF-CEM > 100 µM | OVCAR-3 > 100 µM | SK-MEL-28 > 100 µM | RPMI-8226 > 100 µM | MDA-N > 100 µM | KM12 68.2 µM | T47D > 100 µM | 786-0 > 100 µM | SF-539 > 100 µM | SW-620 32.3 µM | UACC-257 > 100 µM | U-251 > 100 µM | MDA-MB-435 > 100 µM
